Patent US8080657B2, “Compounds of reverse turn mimetics and the use thereof” (Choongwae Pharma Corporation, priority 2008, dated 2011)

Test system: MV-4-11 cells
Assay: Cell growth inhibition assay on AML cancer cells (CellTiter 96)
Assay type: cell-based
Conditions: Homo sapiens, MV4-11; cell growth inhibition on AML cancer cells, MV-4-11; read-out: MV-4-11, GI50
Procedure: The lower GI50 value means the higher inhibition activity.
Cell Growth Inhibition Activity on AML Cancer Cells (Cell Growth Inhibition Assay)
Cell growth Inhibition assay was performed to investigate the rate of inhibition of cell proliferation by the test compounds. MV-4-11 (human, Acute Myeloid Leukemia cell line) cells were cultured in Iscove's modified Dulbecco's medium (IMDM) including 10% fetal bovine serum (FBS), 1× penicillin/streptomycin (10,000 units/ml Penicillin, […] Streptomycin in 0.85% NaCl). MV-4-11 cells were harvested with IMDM medium and 5×10^4 cells/well were transferred to each well of 96 well culture plates (Nunc, #167008). The test compounds were treated with the serial dilution and duplicated for each concentration. For the serial dilution, the test compounds were repeatedly diluted with the same volume of media onto 96-well assay block (costar, #3956). After the dilution, each compound was added to each well. The background absorbance was also measured during the test compounds treatment by adding the IMDM media in replacement of test compound to the negative control plate. The plates were incubated for 3 days (72 hours) at 37° C. in the humidified incubator containing 5% CO2. On the last day, 20 μL of CellTiter 96 Aqueous One Solution (Promega #G3581) was added to the culture in each well and the plates were incubated for a few hours at 37° C. in the humidified incubator containing 5% CO2. After the incubation, the absorbance of each cell was measured at 490 nm using an EnVision (Perkinelmer, USA). The GI50 values were calculated using a Prism 3.0 program.

SMILES	GI50 [nM]
C=CCN1CC(=O)N2[C@@H](Cc3ccc(O)cc3)C(=O)N(Cc3ccc(OC)c(-c4ccncc4)c3)C[C@@H]2N1C(=O)NCc1ccccc1 [compound 20]	2240
C=CCN1CC(=O)N2[C@@H](Cc3ccc(O)cc3)C(=O)N(Cc3cccc(C(=O)NOC)c3)C[C@@H]2N1C(=O)NCc1ccccc1 [compound 18]	360
C=CCN1CC(=O)N2[C@@H](Cc3ccc(O)cc3)C(=O)N(Cc3ccccc3N3CCCC3)C[C@@H]2N1C(=O)NCc1ccccc1 [compound 13]	2010
C=CCN1CC(=O)N2[C@@H](Cc3ccc(O)cc3)C(=O)N(Cc3ccc(F)c(Br)c3)C[C@@H]2N1C(=O)NCc1ccccc1 [compound 21]	300
C=CCN1CC(=O)N2[C@@H](Cc3ccc(O)cc3)C(=O)N(Cc3cccc(C(C)(C)C)c3OC)C[C@@H]2N1C(=O)NCc1ccccc1 [compound 16]	630
C=CCN1CC(=O)N2[C@@H](Cc3ccc(O)cc3)C(=O)N(Cc3cccc(C(N)=O)c3)C[C@@H]2N1C(=O)NCc1ccccc1 [compound 17]	360
C=CCN1CC(=O)N2[C@@H](Cc3ccc(O)cc3)C(=O)N(Cc3cccc(C(=O)NNC(=O)OC(C)(C)C)c3)C[C@@H]2N1C(=O)NCc1ccccc1 [compound 23]	960
C=CCN1CC(=O)N2[C@@H](Cc3ccc(O)cc3)C(=O)N(Cc3ccc(OC)c(Cl)c3)C[C@@H]2N1C(=O)NCc1ccccc1 [compound 11]	1970
C=CCN1CC(=O)N2[C@@H](Cc3ccc(O)cc3)C(=O)N(Cc3cccc4c(C(C)=O)c[nH]c34)C[C@@H]2N1C(=O)NCc1ccccc1 [compound 6]	40
C=CCN1CC(=O)N2[C@@H](Cc3ccc(O)cc3)C(=O)N(Cc3ccc(OC)cc3F)C[C@@H]2N1C(=O)NCc1ccccc1 [compound 10]	1320
C=CCN1CC(=O)N2[C@@H](Cc3ccc(O)cc3)C(=O)N(Cc3cccc4c3ncn4CC(N)=O)C[C@@H]2N1C(=O)NCc1ccccc1 [compound 1]	190
C=CCN1CC(=O)N2[C@@H](Cc3ccc(O)cc3)C(=O)N(Cc3cccc(-c4cccnc4OC)c3)C[C@@H]2N1C(=O)NCc1ccccc1 [compound 22]	740

More lines, now with the values ahead:

GI50 [nM]	SMILES
270	C=CCN1CC(=O)N2[C@@H](Cc3ccc(O)cc3)C(=O)N(Cc3cccc(C(=O)NCC4CC4)c3)C[C@@H]2N1C(=O)NCc1ccccc1 [compound 40]
650	C=CCN1CC(=O)N2[C@@H](Cc3ccc(O)cc3)C(=O)N(Cc3cccc(C(=O)NCCCOCCCC)c3)C[C@@H]2N1C(=O)NCc1ccccc1 [compound 33]
390	C=CCN1CC(=O)N2[C@@H](Cc3ccc(O)cc3)C(=O)N(Cc3cccc(C(=O)NC)c3)C[C@@H]2N1C(=O)NCc1ccccc1 [compound 29]
550	C=CCN1CC(=O)N2[C@@H](Cc3ccc(O)cc3)C(=O)N(Cc3cccc(C(=O)NC)n3)C[C@@H]2N1C(=O)NCc1ccccc1 [compound 44]
5750	C=CCN1CC(=O)N2[C@@H](Cc3ccc(O)cc3)C(=O)N(Cc3cccc(C(N)=O)c3[N+](=O)[O-])C[C@@H]2N1C(=O)NCc1ccccc1 [compound 31]
240	C=CCN1CC(=O)N2[C@@H](Cc3ccc(O)cc3)C(=O)N(Cc3ccc(F)c(-c4cccnc4)c3)C[C@@H]2N1C(=O)NCc1ccccc1 [compound 25]
> 50000	C=CCN1CC(=O)N2[C@@H](Cc3ccc(O)cc3)C(=O)N(Cc3ccc(CP(=O)(O)O)cc3)C[C@@H]2N1C(=O)NCc1ccccc1 [compound 32]
960	C=CCN1CC(=O)N2[C@@H](Cc3ccc(O)cc3)C(=O)N(Cc3cccc(C(=O)NCC4CCCCC4)c3)C[C@@H]2N1C(=O)NCc1ccccc1 [compound 39]
2790	C=CCN1CC(=O)N2[C@@H](Cc3ccc(O)cc3)C(=O)N(Cc3cccc(C(=O)N(C)C)n3)C[C@@H]2N1C(=O)NCc1ccccc1 [compound 45]
1350	C=CCN1CC(=O)N2[C@@H](Cc3ccc(O)cc3)C(=O)N(Cc3ccccc3-n3cnnn3)C[C@@H]2N1C(=O)NCc1ccccc1 [compound 28]
1250	C=CCN1CC(=O)N2[C@@H](Cc3ccc(O)cc3)C(=O)N(Cc3cccc(Cl)c3N(C)C)C[C@@H]2N1C(=O)NCc1ccccc1 [compound 34]
